Data as given in patent US7166472B2, “Method for the identification of agents that inhibit or promote cataracts and uses thereof” (The General Hospital Corporation, priority 2000, dated 2007).
Substitutions are numbered along the chain they refer to. One block for each compound: values may come before it.

Assays:
[1] = Metal reduction assay, Cu(II) to Cu(I) (BC/BCA indicator); type: biochemical; settings: for reduction of Cu(II): test compound 10 μM, Cu(II)-glycine 25 μM, PBS pH 7.4, 37° C., dark, one hour
Protocol: (§1) Metal Reduction Assays—Assays were performed using a 96-well microtiter plate (Costar, Mass.). Test compounds from the kynurenine pathway (10 μM) or, as a positive control, ascorbic acid (ASC, 10 μM) were co-incubated with either Fe(III)-citrate (25 μM) and the Fe(II) indicator bathophenanthroline disulfonic acid (BP, 250 μM), or Cu(II)-glycine (25 μM) and the Cu(I) indicator bathocuproine disulfonic acid (BC) or bicinchoninic acid (BCA, 250 μM). Incubations were conducted in PBS, pH 7.4, at 37° C. in the dark for one hour. Absorbencies were then measured using a plate reader (SPECTRAmax Plus, Molecular Devices, CA) at the appropriate wavelengths: Fe(II)-BP complex at 535 nm (the known molar absorption coefficient, M535,=22140 M^−1 cm^−1), Cu(I)-BC complex at 483 nm, M483=12250 M^−1cm^−1), or Cu(I)-BCA complex at 562 nm, M562=7700 M^−1cm^−1). In control samples, absorbance from the metal ion and indicator in the absence of test compound and the absorbance of test compound in the presence of metal ions, but in the absence of indicator, were determined. The absorbencies from these controls were deducted from those obtained in the presence of the test compound, metal and indicator to yield the net absorbance (ΔA). Fe(II) or Cu(I) concentrations (μM) were calculated according to the formula: C(μM)=ΔA*10^6/Mλ.
The compounds comprising the kynurenine pathway (FIG. 1) were assayed for their ability to reduce […] and Cu(II) (FIG. 2A). […] Values represent the mean±SD for three independent measurements.

[2] = Metal reduction assay, Fe(III) to Fe(II) (BP indicator); type: biochemical; settings: test compound 10 μM, Fe(III)-citrate 25 μM, PBS pH 7.4, 37° C., dark, one hour
Protocol: as §1, with “C(μM)=ΔA*10^6/Mλ. […]” for “C(μM)=ΔA*10^6/Mλ.”

[3] = Cyclic voltammetry of kynurenine metabolites with Cu(II); type: physicochemical; settings: metabolite 100 μM, cupric chloride 25 μM, PBS pH 7.4
Protocol: Cyclic Voltammetry—Cyclic voltammetry was performed at room temperature (22±2° C.) on ambient solutions using an EG&G PAR potentiostat, Model 273. The potentiostat was operated in Ramp Mode, generating a potential staircase waveform with a 0.25 mV step height. The potential window of +0.15 to −0.4V, in which Cu(I) is electroactive, but the metabolites are not, was scanned in both directions at a rate of 100 mV/sec. The current response was passed through a 5.3 Hz low pass filter. A minimum of three cycles were collected for each scan, ensuring the stability of the electrochemical response. The electrochemical cell consisted of an indium/tin oxide working electrode (Delta Technologies) with an active area of 0.32 cm^2, a platinum wire auxiliary electrode, and a Ag/AgCl (1 M KCl) reference electrode (Microelectrodes Inc.). Both the auxiliary and reference electrodes were positioned in the cell in close proximity to the working electrode. The working electrodes were pretreated with successive 10 minute sonications in Alconox (˜8 g/L), 95% ethanol, Milli-Q purified H2O (2×), and PBS (pH 7.4), followed by an overnight soak in PBS (pH 7.4). The ITO electrodes were subsequently “activated” immediately prior to use by successive cycling in PBS for three cycles in each of the following potential windows: +0.15 ? −0.4 V, +0.4 ? −0.4 V, and +1.0 ? −0.4 V. Cupric chloride (25 μM; Allied Chemical) was used as the Cu(II) source. Background voltammograms were obtained on each new electrode before testing the kynurenine pathway metabolites. PBS solutions of KYN, 3-HK, ANA, and 3-HAA (each at 100 μM) were separately scanned with and without added Cu(II) (25 μM). Each experiment also included a scan of Cu(II) (25 μM) in PBS without added test compound. All solutions were tested within minutes of being prepared. Each test was repeated to ensure the reproducibility of the results.
The voltammograms in FIGS. 3A–3D compare 3-HK and 3-HAA to their corresponding non-phenolic analogs, kynurenine (KYN) and anthranilic acid (ANA), in aqueous solutions of Cu(II) at pH 7.4. […] At potentials above +0.15 V, the metabolites undergo direct irreversible oxidation, a reaction that is not considered further here. Cyclic voltammetry of Cu(II) in PBS yielded a current response at ≈−100 mV due to reduction of the metal ion (scan “b” in each panel).

[4] = Hydrogen peroxide assay (DCF fluorometric); type: biochemical
Protocol: Hydrogen Peroxide Assay—The fluorometric assay for hydrogen peroxide is based on the dichlorofluorescein diacetate (DCF) method (Molecular Probes, Eugene, Oreg.). The DCF solution (5 mM) in 100% ethanol was deacetylated in the presence of 0.01 M NaOH for 30 minutes and neutralized. Horseradish peroxidase (200 U/ml) was then added and the DCF concentration adjusted to 200 μM in PBS. The reaction solutions were carried out in PBS, pH 7.4, in a 96-well format plate (total volume=300 μL/well) and contained a test compound (KYN, 3-HK, 3-HAA, ANA, or ASC, each at 10 μM), deacetylated DCF (20 μM), and Cu(II)-glycine (1 μM) as indicated, incubated at 37° C. for 60 minutes. […] Abolition of the reading by co-incubation with catalase (1000 U/ml) was used for establishing H2O2 specificity. The fluorescent readings were recorded by a Packard FLURORCOUNT™ fluorescent plate reader with a 485 nm excitation filter and 530 nm emission filter. Concentrations were determined by comparison to a standard curve using reagent grade hydrogen peroxide in CHELEX™ chelating ion exchanae resin-treated PBS buffer, pH 7.4.
Reactions were conducted in the absence of added Cu(II), in the presence of added glycine-complexed Cu(II) (1 μM), in the presence of added glycine-complexed Cu(II) (1 μM) and catalase (1000 U/ml), or with added glycine-complexed Cu(II) (1 μM) and the copper chelator triethylenetetramine (TETA, 200 μM).

[5] = Thiobarbituric acid-reactive substance (TBARS) assay for hydroxyl radical; type: biochemical; settings: reaction with Cu(II)
Excerpt: Although two Fenton chemistry substrates, hydrogen peroxide and reduced redox-active metal, are produced by 3-HK and 3-HAA, evidence of the hydroxyl radical was not detected using the thiobarbituric acid-reactive substance assay (Huang, X. et al., Biochem. 38:7609–7616 (1999)) (data not shown).

[6] = Superoxide assay (dihydroethidium fluorometric); type: biochemical; settings: test compound 10 μM
Protocol: Superoxide Assay—The fluorometric assay for superoxide is based upon the dihydroethidium (DHE, HYDROETHDNE™) method (Molecular Probes, Eugene, Oreg.) and used according to the manufacturer's instructions. DHE (1 mM) was freshly prepared in 100% argon-sparged DMSO. The reaction solutions were carried out in PBS, pH 7.4, under ambient gas conditions, in 96-well format plates and contained a test compound (KYN, 3-HK, 3-HAA, and ANA, each at 10 μM), DHE (100 μM), +/− Cu(II)-glycine (1 μM) and incubated at 37EC for 60 minutes. […] Abolition of the reading by co-incubation with superoxide dismutase (1000 U/ml) was used for establishing superoxide specificity. The fluorescent readings were recorded by a Packard FLUOROCOUNT™ fluorescent plate reader with a 510 nm excitation filter and 590 nm emission filter. Potassium superoxide dissolved in degassed DMSO was used as a positive control.

[7] = target: T1, α-crystallin (Bos taurus, UniProt P02470+P02510); experiment: α-Crystallin modification under longwave ultraviolet illumination; type: biochemical; settings: exposure of α-crystallin in the presence of longwave ultraviolet illumination
T1 sequence (P02470 1-173): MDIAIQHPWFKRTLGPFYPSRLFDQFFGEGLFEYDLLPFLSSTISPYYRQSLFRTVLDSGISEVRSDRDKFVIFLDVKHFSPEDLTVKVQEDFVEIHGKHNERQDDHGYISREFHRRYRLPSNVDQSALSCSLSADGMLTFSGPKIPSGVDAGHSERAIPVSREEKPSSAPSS
T1 sequence (P02510 1-175): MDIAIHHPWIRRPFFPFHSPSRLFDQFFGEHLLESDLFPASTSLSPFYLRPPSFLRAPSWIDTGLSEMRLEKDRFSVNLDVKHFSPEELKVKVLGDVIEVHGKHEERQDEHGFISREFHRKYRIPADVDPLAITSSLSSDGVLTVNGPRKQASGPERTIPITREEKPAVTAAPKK

[8] = Metal reduction capacity of tanned calf lens α-crystallin, Cu(II); type: biochemical; settings: α-crystallin treated with 100 μM reductant, then dialysis
Protocol: Studies of Tanned Calf Lens Crystalin in Assay of Crystallin Protein for Metal Reduction Capacity—α-Crystallin (10 mg/ml) from calf lens was modified by reaction with 3-HK (100 μM), 3-HAA (100 μM), or ASC (100 μM) in PBS, ph 7.4, for 12 hours at 4° C. in the dark. Control samples were incubated with ascorbic acid (100 μM) or without added reductant. The tanning incubation solutions also contained triethylenetetramine (TETA, 200 μM) to prevent cross-linking of the protein. After incubation, free reductant was removed from the tanned α-crystallin preparations by exhaustive dialysis at 4EC in the dark utilizing PBS, pH 7.4, containing CHELEX™ 100 chelating ion exchange resin (BioRad, Hercules, Calif.). The various modified α-crystallin preparations (100 μg/ml) were co-incubated with either Cu(II)-glycine glycine (25 μM) or Fe(III)-citrate (25 μM) for one hour at 37° C. and assayed for metal reduction capacity using the BC and BP spectrophotometric assay as detailed above. Incubated and dialyzed α-crystallin (100 μg/ml) and untreated α-crystallin (100 μg/ml) preparations were used for procedural control.
3-HK: α-crystallin reduced nearly 100% of the available Cu(II) and approximately 20% of the available Fe(III). 3-HAA: α-crystallin reduced approximately 65% of the available Cu(II).

[9] = Hydrogen peroxide assay (DCF fluorometric); type: biochemical; settings: reacting with Cu(II), 37° C., dark
[10] = target: T2, recombinant human αB-crystallin (Homo sapiens, UniProt P02511); experiment: Recombinant human αB-crystallin cross-linking (SDS-PAGE, silver stain); type: biochemical; settings: TETA 200 μM
T2 construct: gift of Dr. J. Liang, Brigham and Women's Hospital
T2 sequence (P02511 1-175): T1 sequence (P02510 1-175) with A40T, I61F, A132T, A152V
Protocol: Various solutions containing 3-HK (10 μM) or other kynurenine pathway metabolites (10 μM), Cu(II)-glycine (10 μM), Fe(III)-citrate (10 μM), and triethylenetetramine (TETA, 200 μM), were added in combinations as indicated. […] After incubation, aliquots of the total lens protein solutions were mixed with sample buffer containing 4% SDS and 5% β-mercaptoethanol, heated to 95° C. for 5 minutes, and loaded at 1 μg/lane on a 10–20% Tricine gel (Novex, San Diego, Calif.). […] For the experiments with recombinant αB-crystallin, aliquots of the protein solutions were mixed with sample running buffer containing NuPAGE sample buffer (Novex, San Diego, Calif.) and 10% β-mercaptoethanol, heated to 95° C. for 5 minutes, spun briefly, then loaded on a NuPAGE 4–12% Bis-Tris polyacrylamide gel at 375 ng/lane and electrophoresed with denaturing 3-(N-morpholino)propanesulfonic acid (MOPS)-SDS running buffer according to the manufacturer's recommendations.
To exclude the effects of other lens proteins on the observed findings in FIG. 5, these interactions with purified recombinant human αB-crystallin were examined.

[11] = target: bovine serum albumin (BSA) (Bos taurus, UniProt P02769); settings: 3-HK with Cu(II); TETA
Chain of bovine serum albumin (BSA) (P02769 25-607): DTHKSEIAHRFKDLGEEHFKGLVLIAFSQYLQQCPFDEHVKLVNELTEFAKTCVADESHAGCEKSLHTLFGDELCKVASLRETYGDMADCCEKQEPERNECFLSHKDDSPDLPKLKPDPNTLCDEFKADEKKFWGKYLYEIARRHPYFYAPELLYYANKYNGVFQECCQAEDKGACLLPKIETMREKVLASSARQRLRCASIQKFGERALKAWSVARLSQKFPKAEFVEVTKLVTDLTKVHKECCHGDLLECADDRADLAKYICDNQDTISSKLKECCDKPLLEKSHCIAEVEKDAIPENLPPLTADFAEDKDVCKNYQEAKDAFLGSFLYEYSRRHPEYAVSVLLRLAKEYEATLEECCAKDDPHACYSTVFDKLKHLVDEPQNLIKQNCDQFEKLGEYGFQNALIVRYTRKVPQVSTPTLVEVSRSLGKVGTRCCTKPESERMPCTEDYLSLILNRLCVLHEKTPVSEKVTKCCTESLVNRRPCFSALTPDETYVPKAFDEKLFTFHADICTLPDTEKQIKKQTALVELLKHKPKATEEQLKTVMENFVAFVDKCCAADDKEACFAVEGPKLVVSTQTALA

[12] = target: T3, αB-crystallin (Bos taurus, UniProt P02510); experiment: αB-crystallin cross-linking in total calf lens protein (Western blot)
T3 sequence (P02510 1-175): T1 sequence (P02510 1-175)

capacity of altered α-crystallin to reduce metal and generate hydrogen peroxide [7]: dramatically enhanced capacity
SMILES: Nc1c(O)cccc1C(=O)O [3-HAA, 3-hydroxyanthranilic acid]
reduction of Cu(II) [1]: 100%
reduction of Fe(III) [2]: approximately 50%
Cu(II) reduction wave in presence of metabolite [3]: markedly decreased
hydrogen peroxide generated relative to available Cu(II) [4]: approximately 3 fold
hydrogen peroxide generated ([4]; ambient gas conditions, CHELEX-treated PBS, FIG. 4C): approx. 3 μM
evidence of the hydroxyl radical [5]: not detected
effect of Cu(II) on superoxide generation ([6]; Cu(II)-glycine 1 μM): strongly promoted
superoxide production ([6]; ambient oxygen, dark, 60 minutes): significant superoxide production

capacity of altered α-crystallin to reduce metal and generate hydrogen peroxide [7]: did not share this property
SMILES: O=C1O[C@H]([C@@H](O)CO)C(O)=C1O [ASC, ascorbic acid, reference compound]
enhancement of α-crystallin reducing efficiency after treatment [8]: did not result in the enhancement
time dependence of hydrogen peroxide generation [9]: continuous over five hours

effect on 3-HAA Cu(II)-dependent oligomerization and loss of the monomer [10]: reversed
effect on cross-linking by Cu(II) and 3-HK [10]: substantially attenuated
effect on depletion of monomeric αB-crystallin by 3-HK and Cu(II) [10]: completely reversed the depletion
effect on BSA protein depletion [11]: abolished
effect on 3-HK induced αB-crystallin cross-linking ([12]; TETA 200 μM co-incubation): abolished
effect on depletion of monomeric αB-crystallin ([12]; co-incubated with 3-HK and Cu(II), TETA 200 μM): reversed the depletion
SMILES: NCCNCCNCCN [TETA, triethylenetetramine, reference compound]
effect of chelator on metal reduction by 3-HK, 3-HAA and XA ([1]; chelator 250 μM): abolished
effect on hydrogen peroxide generation by 3-HK or 3-HAA ([4]; Cu(II) 1 μM, catalase 1000 U/ml or TETA 200 μM): abolished

SMILES: O=C(O)c1cc(O)c2cccc(O)c2n1 [XA, xanthurenic acid]
reduction of Cu(II) [1]: approximately 40%
reduction of Fe(III) [2]: did not reduce
